Experimental data as given in the NIST ThermoML archive (doi:10.1016/j.jct.2013.12.008).
± gives the expanded uncertainty stated by the source.

Details: 101.33 kPa, Liquid; for viscosity: Capillary tube (Ostwald / Ubbelohde) method; for mass density: Pycnometric method

viscosity (298.15 K) [mPa·s]	mass density (298.15 K) [kg/m3]	viscosity (308.15 K) [mPa·s]	mass density (308.15 K) [kg/m3]	viscosity (318.15 K) [mPa·s]	mass density (318.15 K) [kg/m3]	SMILES
0.989 ± 0.04	988.9 ± 0.8	0.906 ± 0.037	979.5 ± 0.8	0.84 ± 0.034	970.5 ± 0.8	COc1ccccc1 [anisole]
1.223 ± 0.05	960.2 ± 0.6	0.982 ± 0.04	953.4 ± 0.8	0.823 ± 0.034	942.5 ± 0.9	CCOc1ccccc1 [ethoxybenzene]
